In patent US5910494A, “Hypolipidemic 1,4-benzothiazepine-1,1-dioxides” (Glaxo Wellcome Inc., priority 1997, dated 1999):

System: ileal bile acid active uptake transport system
Assay: In vivo inhibition of bile acid uptake: fecal excretion of 75SeHCAT (% inhibition of 75SeHCAT)
Set-up: species or system Male Spraque-Dawley rats
Details: oral gavage, twice daily for two days, rat, feces over 24 hr
Source text: In vivo inhibition of bile acid uptake
Inhibiting intestinal bile acid absorption with bile acid sequestrants or surgically with partial ileal bypass surgery is an effective way to decrease plasma LDL cholesterol concentration. Another approach to decreasing bile acid absorption is inhibiting the ileal bile acid active uptake transport system. It has been shown that this inhibition, as measured by the fecal excretion of bile acids results in hypocholesterolemic activity. (1) Lewis, M. C.; Brieaddy, L. E.; and Root, C. Effects of 2164U90 on Ileal Bile Acid Absorption and Serum Cholesterol in Rats and Mice. J. Lipid. Research., 1995, 36, 1098-1105.
Fecal Excretion of Bile Acids
Male Spraque-Dawley rats weighing 220-260 g were housed in individual cages and fed normal chow. The rats were divided into 6 treatment groups of 10 to 12 rats per group. The rats were dosed by oral gavage(1 mL/100 g body weight) with test compounds as a suspension in 0.5% methylcellulose at 9:00 am and 3:30 pm for two days. The control group received 0.5% methylcellulose. Two hours after the morning dose on day two, the rats were given a trace amount(1.3 nmoles) of 23, 25-^75 Se-homocholic acid taurine(^75 SeHCAT) in 1.0 mL saline orally. ^75 SeHCAT, a synthetic gamma emitting bile acid analog which is absorbed by the ileal bile acid uptake system similar to taurocholic acid, has been used clinically as a measure of ileal bile acid absorptionl,^1,2. Feces were collected over the 24 hr following ^75 SeHCAT administration. Fecal content of ^75 SeHCAT was determined using a Packard Auto-Gamma 5000 Series gamma-counter. Representative data are tabulated in Table 1 as the % inhibition of ^75 SeHCAT.

CCCC[C@]1(CC)CS(=O)(=O)c2cc(OC)c(OC)cc2[C@@H](c2ccccc2)N1 [Example 1, (3R,5R)-3-butyl-3-ethyl-2,3,4,5-tetrahydro-7,8-dimethoxy-5-phenyl-1-4-benzothiazepine 1,1-dioxide] was tested. Which “% Inhibition of ^75 SeHCAT” value (0.1 mg/kg) did it give?
The value was 54%.

What about the “% Inhibition of ^75 SeHCAT” value (0.3 mg/kg) of the same compound?
The value was 51%.

How did the “% Inhibition of ^75 SeHCAT” value (0.3 mg/kg) turn out when CCCC[C@]1(CC)CS(=O)(=O)c2cc(OC)c(OC)cc2[C@@H](c2ccccc2)N1OC(C)=O (relative stereo) [Example 45, (+-)-Trans-3-butyl-3-ethyl-5-phenyl-2,3,4,5-tetrahydro-7,8-dimethoxy-1,4-benzothiazepin-4-yl acetate S,S-dioxide] was run?
The value was 6%.

And the “% Inhibition of ^75 SeHCAT” value (1.0 mg/kg)?
The value was 26%.

What does the source list for CCCC[C@]1(CC)CS(=O)(=O)c2cc(O)c(C=O)cc2[C@@H](c2ccccc2)N1 (relative stereo) [Example 16, (+-)-Trans-3-butyl-3-ethyl-2,3,4,5-tetrahydro-8-hydroxy-5-phenyl-1,4-benzothiazepine-7-carbaldehyde 1,1-dioxide]?
% Inhibition of ^75 SeHCAT (0.3 mg/kg): 34%; % Inhibition of ^75 SeHCAT (1.0 mg/kg): 44%

What does the source list for CCCC[C@]1(CC)CS(=O)(=O)c2cc(OC)c(COC)cc2[C@@H](c2ccccc2)N1 (relative stereo) [Example 24, (+-)-Trans-3-butyl-3-ethyl-2,3,4,5-tetrahydro-8-methoxy-7-(methoxymethyl)-5-phenyl-1,4-benzothiazepine 1,1-dioxide]?
% Inhibition of ^75 SeHCAT (0.3 mg/kg): 24%; % Inhibition of ^75 SeHCAT (1.0 mg/kg): 49%

Which results are given for CCCC[C@]1(CC)CS(=O)(=O)c2cc(OC)c(C=O)cc2[C@@H](c2ccccc2)N1 (relative stereo) [Example 14, (+-)-Trans-3-butyl-3-ethyl-2,3,4,5-tetrahydro-8-methoxy-5-phenyl-1,4-benzothiazepine-7-carbaldehyde 1,1-dioxide]?
% Inhibition of ^75 SeHCAT (0.3 mg/kg): 41%; % Inhibition of ^75 SeHCAT (1.0 mg/kg): 56%

How did the “% Inhibition of ^75 SeHCAT” value (0.1 mg/kg) turn out when CCCC[C@]1(CC)CS(=O)(=O)c2cc(O)c(OC)cc2[C@@H](c2ccccc2)N1 [Example 9, (3R,5R)-3-Butyl-3-ethyl-2,3,4,5-tetrahydro-7-methoxy-5-phenyl-1,4-benzothiazepine-8-ol 1,1-dioxide] was run?
The value was 70%.

And the “% Inhibition of ^75 SeHCAT” value (0.3 mg/kg)?
Its value is 80%.

For CCCC[C@]1(CC)CS(=O)(=O)c2cc(O)ccc2[C@@H](c2ccccc2)N1 (relative stereo) [Example 11, (+-)-trans-3-butyl-3-ethyl-2,3,4,5-tetrahydro-5-phenyl-1,4-benzothiazepine-8-ol 1,1-dioxide], which “% Inhibition of ^75 SeHCAT” value (0.1 mg/kg) is on record?
The value was 71%.

And the “% Inhibition of ^75 SeHCAT” value (0.3 mg/kg)?
The value was 72%.

Which results are given for CCCC[C@]1(CC)CS(=O)(=O)c2cc(S(=O)(=O)O)ccc2[C@@H](c2ccccc2)N1 (relative stereo) [Example 18, (+-)-Trans-3-butyl-3-ethyl-2,3,4,5-tetrahydro-5-phenyl-1,4-benzothiazepine-8-sulfonic acid 1,1-dioxide]?
% Inhibition of ^75 SeHCAT (0.3 mg/kg): 12%; % Inhibition of ^75 SeHCAT (1.0 mg/kg): 39%

CCCC[C@]1(CC)CS(=O)(=O)c2cc(OC)ccc2[C@@H](c2ccccc2)N1 (relative stereo) [Example 10, (+-)-Trans-3-butyl-3-ethyl-2,3,4,5-tetrahydro-8-methoxy-5-phenyl-1,4-benzothiazepine 1,1-dioxide] was tested. Which “% Inhibition of ^75 SeHCAT” value (0.1 mg/kg) did it give?
Its value is 33%.

What about the “% Inhibition of ^75 SeHCAT” value (0.3 mg/kg) of the same compound?
The value was 53%.

How did the “% Inhibition of ^75 SeHCAT” value (0.1 mg/kg) turn out when CCCC[C@]1(CC)CS(=O)(=O)c2cc(O)c(O)cc2[C@@H](c2ccccc2)N1 [Example 7, (3R,5R)-3-Butyl-3-ethyl-2,3,4,5-tetrahydro-5-phenyl-1,4-benzothiazepine-7,8-diol 1,1-dioxide] was run?
The value was 72%.

And the “% Inhibition of ^75 SeHCAT” value (0.3 mg/kg)?
Its value is 65%.
